Here are results for 14 molecules from PubChem BioAssay (NCI).

Experiment in all cases: NCI tumour cell line growth inhibition, 48 h
Experiment [1] relates to COLO 205 colon.
Experiment [2] deals with HOP-62 NSCLC.
The subject of experiment [3] is HS 578T breast.
Experiment [4] concerns HT29 colon.
Experiment [5] concerns MALME-3M melanoma.
The subject of experiment [6] is NCI/ADR-RES ovarian.
In experiment [7] the test system is PC-3 prostate.
Experiment [8] has as its system RPMI-8226 leukemia.
Experiment [9] has as its system SF-268 CNS.
Experiment [10] relates to T-47D breast.
Experiment [11] has as its system TK-10 renal.

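These data come from cells grown in 96-well plates and exposed to compound for 48 hours at five concentrations. TGI is the concentration that stops growth completely.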 Some results are limits rather than exact numbers.

For `O=[N+]([O-])c1ccc(C2NC(=S)NC3c4cc([N+](=O)[O-])ccc4CCCC23)cc1` (centres undefined), the TGI in experiment [1], in experiment [2], in experiment [3], in experiment [4], in experiment [5] and in experiment [6] was above 100 µM in each case. Also, the TGI in [7], in experiment [8], in experiment [9], in [10] and in experiment [11] was above 100 µM each time.

For `COC1=C(OC)C(=O)C(C/C=C/c2c(Cl)nc3sccn23)=C(C)C1=O`, the TGI in experiment [1] was 31.9 µM; in experiment [2], 32.1 µM; in experiment [3] it was 54.6 µM; in [4], 46.9 µM; in [5], 17 µM; in [6] it was 29.6 µM. In addition, the TGI was 31.6 µM in experiment [7]; 27.5 µM in experiment [8]; 38 µM in [9]; 84.2 µM in [10]; 34.9 µM in experiment [11].

Consider `Cc1nnc(N)nc1C/C=C/C(C)Sc1ccc(Cl)cc1` (centres undefined), for which the TGI in experiment [1] was 49.8 µM; in experiment [2], 25.4 µM; in [3] it was above 75.9 µM; in experiment [4], 43.8 µM; in experiment [5] it was 33.7 µM; in [6], above 60.3 µM. The TGI in experiment [7] is 17.8 µM; in [8] it was above 70 µM; in experiment [9], 39.9 µM; in experiment [10], 42.4 µM; in experiment [11], 35.9 µM.

With `Cc1cc(S(=O)(=O)Nc2nnc3c(Cl)cc(C(F)(F)F)cn23)c(S)cc1Cl`, the TGI in [1], in experiment [2], in experiment [3], in experiment [4], in [5] and in experiment [6] was above 100 µM in each case. Moreover, the TGI in [7], in experiment [8], in experiment [9], in experiment [10] and in experiment [11] was above 100 µM each time.

As to `CC(C)C1CCC(=O)CC1CCCCC1CC(=O)CC1O[Si](C)(C)C(C)(C)C` (centres undefined), the TGI in [1] was determined as 21.5 µM; in [2], 33.7 µM; in [3], 9.89 µM; in experiment [4], 10.3 µM; in experiment [5] it was 19.1 µM; in experiment [6], 21.2 µM. In addition, the TGI in experiment [7] came to 43.1 µM; in experiment [8] it was 5.6 µM; in [9], 7.74 µM; in experiment [10] it was 46.9 µM; in [11], 23.4 µM.

For the molecule `COc1cc(C2SCC(=O)N2c2ccc(Cl)cc2)cc(OC)c1OC` (centres undefined), the TGI is above 56.8 µM in experiment [1]; above 100 µM in [2]; above 100 µM in [3]; above 41 µM in experiment [4]; above 100 µM in experiment [5]; above 100 µM in experiment [6]. The TGI is above 100 µM in [7]; above 55.3 µM in experiment [8]; above 100 µM in [9]; above 24.2 µM in experiment [10]; above 100 µM in experiment [11].

On to `NC1C2C=CC(C2)C1C(=O)O` (centres undefined), for which the TGI in [1], in experiment [2], in experiment [3], in [4], in experiment [5] and in experiment [6] was above 100 µM each time. In addition, the TGI in experiment [7], in [8], in experiment [9], in experiment [10] and in experiment [11] was above 100 µM each time.

`CC(C)NC(=O)OCc1c(COC(=O)NC(C)C)c(-c2cc[n+](COC(=O)Cc3ccccc3)cc2)n2c1CCC2`: the TGI in [1], in experiment [2], in experiment [3], in experiment [4], in [5] and in [6] was above 100 µM throughout. Also, the TGI in experiment [7], in experiment [8], in experiment [9], in [10] and in experiment [11] was above 100 µM each time.

`O=C(/C=C/c1ccc(Cl)cc1)c1nc2ccccc2[nH]1`: the TGI in experiment [1] is 50.4 µM; in experiment [2], 50.1 µM; in experiment [3], above 100 µM; in experiment [4], 63.4 µM; in experiment [5], above 100 µM; in experiment [6], above 100 µM. The TGI in [7] is above 100 µM; in [8], 5.18 µM; in experiment [9], above 100 µM; in [10], 38.9 µM; in experiment [11] it was 70.5 µM.

Regarding `CC(=O)OC1CC2C(=O)CC1(C)C2(C)C` (centres undefined), the TGI in experiment [1], in experiment [2], in [3], in experiment [4], in [5] and in [6] was above 100 µM each time. Besides, the TGI in experiment [7], in experiment [8], in experiment [9], in experiment [10] and in experiment [11] was above 100 µM each time.

Turning to `CC1=C(C(=O)NNC(=O)c2ccccc2O)CC(C(=O)NNC(=O)c2ccccc2O)=C(C)N1`, the TGI in [1] was above 86.8 µM; in [2] it was above 86.2 µM; in [3] it was above 100 µM; in experiment [4], above 100 µM; in experiment [5], above 100 µM; in experiment [6] it was above 51.3 µM. Besides, the TGI was above 100 µM in experiment [7]; above 100 µM in experiment [8]; above 100 µM in experiment [9]; above 32.6 µM in experiment [10]; above 100 µM in [11].

For `COc1ccc2nc3c([N+](=O)[O-])ccc4c3c(c2c1)N=CN4CCN(C)C`, the TGI in experiment [1] was found to be 10.1 µM; in [2], 15.3 µM; in experiment [3], 28.1 µM; in [4] it was 14.4 µM; in experiment [5], 14.5 µM; in experiment [6], 22 µM. Besides, the TGI in experiment [7] was found to be 35.4 µM; in [8] it was 8.27 µM; in [9] it was 19.6 µM; in experiment [10], 22.4 µM; in [11], 21.1 µM.

Regarding `Nc1n[nH]c(N)n1`, the TGI in experiment [1] is 9990 µM; in [2], 3550 µM; in [3] it was above 10000 µM; in experiment [4], above 10000 µM; in [5], above 10000 µM; in [6] it was above 10000 µM. The TGI in experiment [7], in experiment [8], in experiment [9], in [10] and in experiment [11] was above 10000 µM throughout.

`CCOC(=O)CN1C(=O)c2c(NC(=O)C(=O)O)cccc2S1(=O)=O`: the TGI in experiment [1], in experiment [2], in experiment [3], in experiment [4], in experiment [5] and in [6] was above 100 µM in each case. For the same molecule, the TGI in experiment [7], in experiment [8], in experiment [9], in experiment [10] and in experiment [11] was above 100 µM each time.
